Laboratory results reported in US20240391862A1, “(1,4,5-TRISUBSTITUTED-1H-PYRAZOL-3-YL)OXY-2-ALKOXY ALKYL ACIDS AND THEIR DERIVATIVES, THEIR SALTS AND THEIR USE AS HERBICIDAL AGENTS” (Bayer AKtiengesellschaft, priority 2021, published 2024).

Assays:
[1] = tested on: ABUTH; test: Post-emergence herbicidal effect, greenhouse pot test; assay type: in vivo, Abutilon theophrasti; conditions: visual rating about 3 weeks after treatment
Source text: (§1) • ALOMY: Alopecurus myosuroides SETVI: Setaria viridis • AVEFA: Avena fatua POLCO: Fallopia convolvulus • AMARE: Amaranthus retroflexus ECHCG: Echinochloa crus-galli • LOLRJ: Lolium rigidum STEME: Stellaria media • VERPE: Veronica persica MATIN: Tripleurospermum inodorum • DIGSA: Digitaria sanguinalis ABUTH: Abutylon threophrasti • TRZAS: Triticum aestivum VIOTR: Viola tricolor • BRSNW: Brassica napus ZEAMX: Zea mays • PHBPU: Ipomoea purpurea GLXMA: Glycine max • ORYSA: Oryza sativa HORMU: Hordeum murinum
(§2) Seeds of monocotyledonous and dicotyledonous weeds and crop plants are placed in sandy loam in plastic or organic planting pots, covered with soil and cultivated in a greenhouse under controlled growth conditions. 2 to 3 weeks after sowing, the trial plants are treated at the one-leaf stage. The compounds of the invention, formulated in the form of wettable powders (WP) or as emulsion concentrates (EC), are then sprayed onto the green parts of the plants as aqueous suspension or emulsion with addition of 0.5% additive at a water application rate of 600 l/ha (converted). After the test plants have been kept in the greenhouse under optimum growth conditions for about 3 weeks, the activity of the preparations is rated visually in comparison to untreated controls. For example, 100% activity=the plants have died, 0% activity=like control plants.
(§3) Tables 20a to 38c below show the effects/crop compatibilities of selected compounds of the general formula (I) on various harmful plants at an application rate corresponding to 20 to 320 g/ha, which were obtained by the trial procedure specified above.

[2] = tested on: ALOMY; test: as above; assay type: in vivo, Alopecurus myosuroides; conditions: 320 g/ha, visual rating about 3 weeks after treatment
Source text: as §1, §2, §3

[3] = tested on: AVEFA; test: as above; assay type: in vivo, Avena fatua; conditions: visual rating about 3 weeks after treatment
Source text: as §1, §2, §3

[4] = tested on: VERPE; test: as above; assay type: in vivo, Veronica persica
Source text: as §1, §2, §3

[5] = tested on: PHBPU; test: as above; assay type: in vivo, Ipomoea purpurea
Source text: as §1, §2, §3

[6] = tested on: SETVI; test: as above; assay type: in vivo, Setaria viridis
Source text: as §1, §2, §3

[7] = tested on: ECHCG; test: as above; assay type: in vivo, Echinochloa crus-galli
Source text: as §1, §2, §3

[8] = tested on: MATIN; test: as above; assay type: in vivo, Tripleurospermum inodorum
Source text: as §1, §2, §3

[9] = tested on: DIGSA; test: as above; assay type: in vivo, Digitaria sanguinalis; conditions: visual rating about 3 weeks after treatment
Source text: as §1, §2, §3

[10] = tested on: VIOTR; test: as above; assay type: in vivo, Viola tricolor
Source text: as §1, §2, §3

[11] = tested on: POLCO; test: as above; assay type: in vivo, Fallopia convolvulus
Source text: as §1, §2, §3

[12] = tested on: KCHSC; test: as above; assay type: in vivo
Procedure: as §2, with “plants. Tables 20a to 38c below show the effects/crop compatibilities of selected compounds of the general formula (I) on various harmful plants at an application rate corresponding to 20 to 320 g/ha, which were obtained by the trial procedure specified above.” for “plants.”

[13] = tested on: AMARE; test: as above; assay type: in vivo, Amaranthus retroflexus; conditions: 320 g/ha, visual rating about 3 weeks after treatment
Source text: as §1, §2, §3

[14] = tested on: ZEAMX; test: Post-emergence herbicidal effect and crop plant compatibility, greenhouse pot test; assay type: in vivo, Zea mays; conditions: 20 g/ha, one-leaf stage, rated visually after about 3 weeks vs untreated controls
Source text: as §1, §2, §3

CCOC(Oc1nn(-c2ccccc2F)c(-c2ccc(F)nc2)c1Br)C(=O)OCCC(=O)OC (single isomer, unassigned) [Example I-63, Methyl 3-{[(2R*)-2-{[4-bromo-1-(2-fluorophenyl)-5-(6-fluoropyridin-3-yl)-1H-pyrazol-3-yl]oxy}-2-ethoxyethanoyl]oxy}propanoate]
pest or weed control at 80 g/ha ([1]; Abutilon theophrasti, 504 h, 80 g/ha, read-out: Post-emergence effect against ABUTH): 90%
pest or weed control at 320 g/ha ([1]; Abutilon theophrasti, 504 h, 320 g/ha, read-out: Post-emergence effect against ABUTH): 90%
pest or weed control at 320 g/ha ([2]; Alopecurus myosuroides, 504 h, read-out: Post-emergence effect against ALOMY): 90%
pest or weed control at 80 g/ha ([3]; Avena fatua, 504 h, 80 g/ha, read-out: Post-emergence effect against AVEFA): 80%
pest or weed control at 320 g/ha ([3]; Avena fatua, 504 h, 320 g/ha, read-out: Post-emergence effect against AVEFA): 90%
pest or weed control at 80 g/ha ([4]; Veronica persica, 504 h, 80 g/ha, read-out: Post-emergence effect against VERPE in %): 80%
pest or weed control at 320 g/ha ([4]; Veronica persica, 504 h, 320 g/ha, read-out: Post-emergence effect against VERPE in %): 80%
pest or weed control at 20 g/ha ([5]; Ipomoea purpurea, 504 h, 20 g/ha, read-out: Post-emergence effect against PHBPU in %): 80%
pest or weed control at 80 g/ha ([5]; Ipomoea purpurea, 504 h, 80 g/ha, read-out: Post-emergence effect against PHBPU in %): 90%
pest or weed control at 320 g/ha ([5]; Ipomoea purpurea, 504 h, 320 g/ha, read-out: Post-emergence effect against PHBPU in %): 90%
pest or weed control at 80 g/ha ([6]; Setaria viridis, 504 h, 80 g/ha, read-out: Post-emergence effect against SETVI in %): 90%
pest or weed control at 320 g/ha ([6]; Setaria viridis, 504 h, 320 g/ha, read-out: Post-emergence effect against SETVI in %): 90%
pest or weed control at 20 g/ha ([7]; Echinochloa crus-galli, 504 h, 20 g/ha, visual rating about 3 weeks after treatment, read-out: Post-emergence effect against ECHCG): 90%
pest or weed control at 80 g/ha ([7]; Echinochloa crus-galli, 504 h, 80 g/ha, read-out: Post-emergence effect against ECHCG in %): 90%
pest or weed control at 320 g/ha ([7]; Echinochloa crus-galli, 504 h, 320 g/ha, read-out: Post-emergence effect against ECHCG in %): 90%
pest or weed control at 80 g/ha ([8]; Tripleurospermum inodorum, 504 h, 80 g/ha, read-out: Post-emergence effect against MATIN in %): 80%
pest or weed control at 320 g/ha ([8]; Tripleurospermum inodorum, 504 h, 320 g/ha, read-out: Post-emergence effect against MATIN in %): 80%
pest or weed control at 80 g/ha ([9]; Digitaria sanguinalis, 504 h, 80 g/ha, read-out: Post-emergence effect against DIGSA): 90%
pest or weed control at 320 g/ha ([9]; Digitaria sanguinalis, 504 h, 320 g/ha, read-out: Post-emergence effect against DIGSA): 90%
pest or weed control at 80 g/ha ([10]; Viola tricolor, 504 h, 80 g/ha, read-out: Post-emergence effect against VIOTR in %): 80%
pest or weed control at 320 g/ha ([10]; Viola tricolor, 504 h, 320 g/ha, read-out: Post-emergence effect against VIOTR in %): 90%
pest or weed control at 80 g/ha ([11]; Fallopia convolvulus, 504 h, 80 g/ha, read-out: Post-emergence effect against POLCO in %): 80%
pest or weed control at 320 g/ha ([11]; Fallopia convolvulus, 504 h, 320 g/ha, read-out: Post-emergence effect against POLCO in %): 90%
pest or weed control at 320 g/ha ([12]; 504 h, 320 g/ha, read-out: Post-emergence effect against KCHSC in %): 90%

COC(=O)CCOC(=O)C(OC)Oc1nn(-c2ncccc2F)c(-c2ccc(F)nc2)c1C1CC1 (single isomer, unassigned) [Example I-80]
Post-emergence effect against ABUTH ([1]; 80 g/ha): 80%
Post-emergence effect against ABUTH ([1]; 320 g/ha): 80%
Post-emergence effect against ALOMY [2]: 90%
Post-emergence effect against AVEFA ([3]; 320 g/ha): 90%
Post-emergence effect against AMARE [13]: 80%
Post-emergence effect against VERPE in % ([4]; 80 g/ha): 80%
Post-emergence effect against VERPE in % ([4]; 320 g/ha): 90%
Post-emergence effect against PHBPU in % ([5]; 80 g/ha): 90%
Post-emergence effect against PHBPU in % ([5]; 320 g/ha): 90%
Post-emergence effect against SETVI in % ([6]; 80 g/ha): 90%
Post-emergence effect against SETVI in % ([6]; 320 g/ha): 90%
Post-emergence effect at 20 g/ha against ZEAMX in % [14]: 20%
Post-emergence effect against ECHCG ([7]; 20 g/ha, visual rating about 3 weeks after treatment): 90%
Post-emergence effect against ECHCG in % ([7]; 80 g/ha): 90%
Post-emergence effect against ECHCG in % ([7]; 320 g/ha): 90%
Post-emergence effect against DIGSA ([9]; 80 g/ha): 80%
Post-emergence effect against DIGSA ([9]; 320 g/ha): 90%
Post-emergence effect against VIOTR in % ([10]; 80 g/ha): 80%
Post-emergence effect against VIOTR in % ([10]; 320 g/ha): 90%
Post-emergence effect against POLCO in % ([11]; 320 g/ha): 90%
Post-emergence effect against KCHSC in % ([12]; 20 g/ha): 90%
Post-emergence effect against KCHSC in % ([12]; 80 g/ha): 90%
Post-emergence effect against KCHSC in % ([12]; 320 g/ha): 90%

COC(=O)CCOC(=O)C(OC)Oc1nn(-c2ccccc2F)c(-c2ccc(F)nc2)c1C1CC1 (centres unmarked) [Example I-61]
Post-emergence effect against ABUTH ([1]; 80 g/ha): 80%
Post-emergence effect against ABUTH ([1]; 320 g/ha): 80%
Post-emergence effect against ALOMY [2]: 90%
Post-emergence effect against AVEFA ([3]; 80 g/ha): 80%
Post-emergence effect against AVEFA ([3]; 320 g/ha): 90%
Post-emergence effect against VERPE in % ([4]; 80 g/ha): 80%
Post-emergence effect against VERPE in % ([4]; 320 g/ha): 80%
Post-emergence effect against PHBPU in % ([5]; 80 g/ha): 90%
Post-emergence effect against PHBPU in % ([5]; 320 g/ha): 90%
Post-emergence effect against SETVI in % ([6]; 80 g/ha): 90%
Post-emergence effect against SETVI in % ([6]; 320 g/ha): 90%
Post-emergence effect at 20 g/ha against ZEAMX in % [14]: 0%
Post-emergence effect against ECHCG in % ([7]; 80 g/ha): 90%
Post-emergence effect against ECHCG in % ([7]; 320 g/ha): 90%
Post-emergence effect against MATIN in % ([8]; 80 g/ha): 80%
Post-emergence effect against MATIN in % ([8]; 320 g/ha): 80%
Post-emergence effect against DIGSA ([9]; 80 g/ha): 80%
Post-emergence effect against DIGSA ([9]; 320 g/ha): 90%
Post-emergence effect against VIOTR in % ([10]; 20 g/ha): 80%
Post-emergence effect against VIOTR in % ([10]; 80 g/ha): 90%
Post-emergence effect against VIOTR in % ([10]; 320 g/ha): 90%
Post-emergence effect against POLCO in % ([11]; 80 g/ha): 80%
Post-emergence effect against POLCO in % ([11]; 320 g/ha): 80%
Post-emergence effect against KCHSC in % ([12]; 80 g/ha): 80%
Post-emergence effect against KCHSC in % ([12]; 320 g/ha): 90%

COC(=O)CCOC(=O)C(OC)Oc1nn(-c2ccccc2F)c(-c2ccc(F)nc2)c1C(F)(F)F (centres unmarked) [Example I-62]
Post-emergence effect against ABUTH ([1]; 80 g/ha): 80%
Post-emergence effect against ABUTH ([1]; 320 g/ha): 90%
Post-emergence effect against ALOMY [2]: 90%
Post-emergence effect against AVEFA ([3]; 80 g/ha): 90%
Post-emergence effect against AVEFA ([3]; 320 g/ha): 90%
Post-emergence effect against VERPE in % ([4]; 80 g/ha): 80%
Post-emergence effect against VERPE in % ([4]; 320 g/ha): 80%
Post-emergence effect against PHBPU in % ([5]; 20 g/ha): 90%
Post-emergence effect against PHBPU in % ([5]; 80 g/ha): 90%
Post-emergence effect against PHBPU in % ([5]; 320 g/ha): 90%
Post-emergence effect against SETVI in % ([6]; 80 g/ha): 90%
Post-emergence effect against SETVI in % ([6]; 320 g/ha): 90%
Post-emergence effect at 20 g/ha against ZEAMX in % [14]: 0%
Post-emergence effect against ECHCG in % ([7]; 80 g/ha): 90%
Post-emergence effect against ECHCG in % ([7]; 320 g/ha): 90%
Post-emergence effect against MATIN in % ([8]; 80 g/ha): 80%
Post-emergence effect against MATIN in % ([8]; 320 g/ha): 80%
Post-emergence effect against DIGSA ([9]; 80 g/ha): 90%
Post-emergence effect against DIGSA ([9]; 320 g/ha): 90%
Post-emergence effect against VIOTR in % ([10]; 80 g/ha): 90%
Post-emergence effect against VIOTR in % ([10]; 320 g/ha): 90%
Post-emergence effect against POLCO in % ([11]; 80 g/ha): 80%
Post-emergence effect against POLCO in % ([11]; 320 g/ha): 80%
Post-emergence effect against KCHSC in % ([12]; 20 g/ha): 80%
Post-emergence effect against KCHSC in % ([12]; 80 g/ha): 90%
Post-emergence effect against KCHSC in % ([12]; 320 g/ha): 90%
